Each block holds one molecule with its values, some of them ahead of it.
What was measured:
Human GlyT1c = molecular target: T1, Human GlyT1c (Homo sapiens, UniProt P48067); test: Glycine uptake in recombinant hGlyT1 expressing cells; type: cell-based; settings: hGlyT1c_5_CHO cells; [3H]-glycine uptake, 60-120 min
T1 construct: expressed in transfected cells; host or cells: CHO (hGlyT1c_5_CHO clone)
T1 sequence (P48067 1-706): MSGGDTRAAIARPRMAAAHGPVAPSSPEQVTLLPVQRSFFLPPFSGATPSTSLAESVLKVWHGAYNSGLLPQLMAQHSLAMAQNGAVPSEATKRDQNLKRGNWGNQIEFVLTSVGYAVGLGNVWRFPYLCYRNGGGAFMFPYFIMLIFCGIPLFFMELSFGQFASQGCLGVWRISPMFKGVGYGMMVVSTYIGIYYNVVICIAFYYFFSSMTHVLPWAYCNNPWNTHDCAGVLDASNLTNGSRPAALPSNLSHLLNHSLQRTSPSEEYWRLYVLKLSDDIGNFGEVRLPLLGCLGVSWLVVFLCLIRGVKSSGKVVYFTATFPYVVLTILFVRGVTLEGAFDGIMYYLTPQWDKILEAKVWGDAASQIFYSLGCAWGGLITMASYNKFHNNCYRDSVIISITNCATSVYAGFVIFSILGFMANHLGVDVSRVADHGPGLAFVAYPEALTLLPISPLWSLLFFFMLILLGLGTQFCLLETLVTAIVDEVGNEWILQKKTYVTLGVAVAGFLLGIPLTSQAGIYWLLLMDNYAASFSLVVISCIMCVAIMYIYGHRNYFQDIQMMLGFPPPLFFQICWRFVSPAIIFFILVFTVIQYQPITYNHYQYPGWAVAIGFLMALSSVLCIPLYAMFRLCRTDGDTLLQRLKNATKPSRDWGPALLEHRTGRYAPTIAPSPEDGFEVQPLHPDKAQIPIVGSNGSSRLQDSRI
Outline: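 Recombinant hGlyT1c CHO cells were washed in HBSS with 5 mM L-alanine, then given inhibitor and [3H]-glycine. Uptake was counted continuously by solid-phase scintillation for up to 3 h, with nonspecific uptake defined by 10 μM Org24598. IC50 came from four-parameter logistic fits over the linear 60–120 min range.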

human GlyT1c transporter = molecular target: T2, human GlyT1c transporter (Homo sapiens, UniProt P48067); test: [3H]-(R)-NPTS radioligand binding assay using recombinant hGlyT1 expressing cell membranes; settings: 0.5 nM [3H]-(R)-NPTS, apparent Ki via Cheng-Prusoff, read-out: [3H]-(R)-NPTS bindung Ki
T2 construct: expressed in transfected cells; host or cells: recombinant hGlyT1-expressing cells
T2 sequence (P48067 1-706): T1 sequence (P48067 1-706)
Outline: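 Membranes expressing human GlyT1c (50 μg/ml protein) were incubated with 0.5 nM [3H]-(R)-NPTS in pH 7.5 HEPES/NaCl buffer with 1% DMSO for 1 h at room temperature, then filtered. Non-specific binding was defined with 10 μM Org24598, and IC50 values were converted to apparent Ki by Cheng-Prusoff.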

Structure (SMILES): COc1cccc2c(NC(CN3CCCC3)c3ccccc3)cc(C)nc12 (centres unmarked) [Example 69, (8-Methoxy-2-methylquinolin-4-yl)-(1-phenyl-2-pyrrolidin-1-ylethyl)-amine]
IC50 (Human GlyT1c): ≤ 10 µM | Ki (human GlyT1c transporter): ≤ 10 µM

Structure (SMILES): COc1cccc2c(NC(c3ccc(Cl)cc3)c3nccn3C)cc(C)nc12 (centres unmarked) [Example 70, [(4-Chlorophenyl)-(1-methyl-1H-imidazol-2-yl)-methyl]-(8-methoxy-2-methylquinoline-4-yl)amine]
IC50 (Human GlyT1c): ≤ 100 µM | Ki (human GlyT1c transporter): ≤ 10 µM

Structure (SMILES): COc1cccc2c(NC(c3ccc(Cl)cc3)C3CC3)cc(C)nc12 (centres unmarked) [Example 72, [(4-Chlorophenyl)-cyclopropylmethyl]-(8-methoxy-2-methylquinolin-4-yl)-amine]
IC50 (Human GlyT1c): ≤ 10 µM | Ki (human GlyT1c transporter): ≤ 1 µM

Structure (SMILES): COc1cccc2c(NC(C(N)=O)c3ccccc3)cc(C)nc12 (centres unmarked) [Example 74, 2-(8-Methoxy-2-methylquinolin-4-ylamino)-2-phenylacetamide]
IC50 (Human GlyT1c): ≤ 1000 µM | Ki (human GlyT1c transporter): ≤ 10 µM

Structure (SMILES): COc1cccc2c(N[C@@H](CN(C)C)c3ccc(Cl)cc3)cc(C)nc12 [Example 77, (R)-1-(4-Chlorphenyl)-N*1*-(8-methoxy-2-methylquinoline-4-yl)-N*2*,N*2*-dimethylethane-1,2-diamin]
IC50 (Human GlyT1c): ≤ 10 µM | Ki (human GlyT1c transporter): ≤ 1 µM

Structure (SMILES): COc1cccc2c(NC(CNCc3ccccc3)c3ccccc3)cc(C)nc12 (centres unmarked) [Example 78, N*2*-Benzyl-N*1*-(8-methoxy-2-methylquinolin-4-yl)-1-phenylethane-1,2-diamine]
IC50 (Human GlyT1c): ≤ 10 µM | Ki (human GlyT1c transporter): ≤ 1 µM

Structure (SMILES): COc1cccc2c(NC(CNC(C)C)c3ccccc3)cc(C)nc12 (centres unmarked) [Example 79, N*2*-Isopropyl-N*1*-(8-methoxy-2-methylquinolin-4-yl)-1-phenylethane-1,2-diamine]
IC50 (Human GlyT1c): ≤ 10 µM | Ki (human GlyT1c transporter): ≤ 10 µM

Structure (SMILES): CSc1cccc2c(NCc3ccc(F)c(F)c3)cc(C)nc12 [Example 86, (3,4-Difluorobenzyl)-(2-methyl-8-methylsulfanylquinolin-4-yl)-amine]
IC50 (Human GlyT1c): ≤ 1 µM | Ki (human GlyT1c transporter): ≤ 1 µM

Structure (SMILES): Cc1cc(NCc2ccc(Cl)c(Cl)c2)c2ccccc2n1 [Example 89, (3,4-Dichlorobenzyl)-(2-methylquinolin-4-yl)-amine]
IC50 (Human GlyT1c): ≤ 1 µM | Ki (human GlyT1c transporter): ≤ 0.1 µM

Structure (SMILES): Cc1cc(NCc2ccc(F)cc2)c2ccccc2n1 [Example 90, (4-Fluorobenzyl)-(2-methylquinoline-4-yl)-amine]
IC50 (Human GlyT1c): ≤ 1 µM | Ki (human GlyT1c transporter): ≤ 1 µM

Structure (SMILES): Cc1cc(NCc2cccc(Cl)c2Cl)c2ccccc2n1 [Example 91, (2,3-Dichloro-benzyl)-(2-methylquinolin-4-yl)-amine]
IC50 (Human GlyT1c): ≤ 10 µM | Ki (human GlyT1c transporter): ≤ 10 µM

Structure (SMILES): Cc1cc(NCc2ccc(Cl)c(Cl)c2)c2cccc([S+](C)[O-])c2n1 (centres unmarked) [Example 92, (3,4-Dichlorobenzyl)-(8-methanesulfinyl-2-methylquinolin-4-yl)-amine]
IC50 (Human GlyT1c): ≤ 1 µM | Ki (human GlyT1c transporter): ≤ 1 µM

Structure (SMILES): Cc1cc(NCc2ccc(Cl)c(Cl)c2)c2cccc(S(C)(=O)=O)c2n1 [Example 93, (3,4-Dichlorobenzyl)-(8-methanesulfonyl-2-methylquinolin-4-yl)-amine]
IC50 (Human GlyT1c): ≤ 10 µM | Ki (human GlyT1c transporter): ≤ 1 µM

Structure (SMILES): CN(C)c1cc(NCc2ccccc2)c2ccccc2n1 [Example 94, N*4*-Benzyl-N*2*,N*2*-dimethylquinoline-2,4-diamine]
IC50 (Human GlyT1c): ≤ 100 µM | Ki (human GlyT1c transporter): ≤ 10 µM

Structure (SMILES): CN(C)c1cc(NCc2ccc(Cl)cc2Cl)c2ccccc2n1 [Example 96, N*4*-(2,4-Dichlorobenzyl)-N*2*,N*2*-dimethylquinoline-2,4-diamin]
IC50 (Human GlyT1c): ≤ 10 µM | Ki (human GlyT1c transporter): ≤ 1 µM

Continued, values first:

IC50 (Human GlyT1c): ≤ 1 µM | Ki (human GlyT1c transporter): ≤ 0.1 µM
Structure (SMILES): COc1cccc2c(NC(CN(C)C)c3ccccc3)cc(C)nc12 (centres unmarked) [Example 71, N*1*-(8-Methoxy-2-methylquinolin-4-yl)-N*2*,N*2*-dimethyl-1-phenylethane-1,2-diamine]

IC50 (Human GlyT1c): ≤ 1 µM | Ki (human GlyT1c transporter): ≤ 1 µM
Structure (SMILES): COc1cccc2c(NC(c3ccncc3)c3ccc(Cl)cc3)cc(C)nc12 (centres unmarked) [Example 73, [(4-Chlorophenyl)-pyridin-4-ylmethyl]-(8-methoxy-2-methylquinolin-4-yl)-amine]

IC50 (Human GlyT1c): ≤ 1 µM | Ki (human GlyT1c transporter): ≤ 1 µM
Structure (SMILES): COc1cccc2c(NC(CN)c3ccccc3)cc(C)nc12 (centres unmarked) [Example 75, N*1*-(8-Methoxy-2-methylquinolin-4-yl)-1-phenylethane-1,2-diamine]

IC50 (Human GlyT1c): ≤ 0.1 µM | Ki (human GlyT1c transporter): ≤ 0.001 µM
Structure (SMILES): COc1cccc2c(N[C@H](CN(C)C)c3ccc(Cl)cc3)cc(C)nc12 [Example 76, (S)-1-(4-Chlorophenyl)-N*1*-(8-methoxy-2-methylquinolin-4-yl)-N*2*,N*2*-dimethylethane-1,2-diamine]

IC50 (Human GlyT1c): ≤ 1 µM | Ki (human GlyT1c transporter): ≤ 1 µM
Structure (SMILES): COc1cccc2c(NCc3ccc(C(F)(F)F)c(Cl)c3)cc(C)nc12 [Example 80, (3-Chloro-4-trifluoromethylbenzyl)-(8-methoxy-2-methylquinolin-4-yl)-amine]

IC50 (Human GlyT1c): ≤ 1 µM | Ki (human GlyT1c transporter): ≤ 0.1 µM
Structure (SMILES): Cc1cc(NCc2ccc(Cl)c(Cl)c2)c2cccc(Cl)c2n1 [Example 81, (8-Chlor-2-methylquinolin-4-yl)-(3,4-dichlorobenzyl)-amine]

IC50 (Human GlyT1c): ≤ 1 µM | Ki (human GlyT1c transporter): ≤ 1 µM
Structure (SMILES): Cc1cc(NCc2ccc(Cl)c(Cl)c2)c2cccc(F)c2n1 [Example 82, (3,4-Dichlorobenzyl)-(8-fluoro-2-methylquinolin-4-yl)-amine]

IC50 (Human GlyT1c): ≤ 1 µM | Ki (human GlyT1c transporter): ≤ 1 µM
Structure (SMILES): CSc1cccc2c(NCc3ccc(Cl)cc3)cc(C)nc12 [Example 83, (4-Chlorobenzyl)-(2-methyl-8-methylsulfanylquinolin-4-yl)-amine]

IC50 (Human GlyT1c): ≤ 1 µM | Ki (human GlyT1c transporter): ≤ 1 µM
Structure (SMILES): COc1cccc2c(NCc3ccc(Cl)cc3)cc(C)nc12 [Example 84, (4-Chlorobenzyl)-(2-methyl-8-methoxyquinolin-4-yl)amine]

IC50 (Human GlyT1c): ≤ 1 µM | Ki (human GlyT1c transporter): ≤ 1 µM
Structure (SMILES): Cc1cc(NCc2ccc(F)c(F)c2)c2cccc(C)c2n1 [Example 85, (3,4-Difluoro-benzyl)-(2,8-dimethyl-quinolin-4-yl)-amine]

IC50 (Human GlyT1c): ≤ 0.1 µM | Ki (human GlyT1c transporter): ≤ 0.1 µM
Structure (SMILES): Cc1cc(NCc2ccc(Cl)c(Cl)c2)c2cccc(C)c2n1 [Example 87, (3,4-Dichlorobenzyl)-(2-methyl-8-methylquinolin-4-yl)-amine]

IC50 (Human GlyT1c): ≤ 0.1 µM | Ki (human GlyT1c transporter): ≤ 0.1 µM
Structure (SMILES): CSc1cccc2c(NCc3ccc(Cl)c(Cl)c3)cc(C)nc12 [Example 88, (3,4-Dichlorobenzyl)-(2-methyl-8-methylsulfanylquinolin-4-yl)-amine]

IC50 (Human GlyT1c): ≤ 0.1 µM | Ki (human GlyT1c transporter): ≤ 0.1 µM
Structure (SMILES): CN(C)c1cc(NCc2ccc(Cl)c(Cl)c2)c2ccccc2n1 [Example 95, N*4*-(3,4-Dichlorobenzyl)-N*2*,N*2*-dimethylquinoline-2,4-diamine]

— patent US8420670B2 (Abbott Laboratories, priority 2007, dated 2013)
